Data reported in patent publication US8710080B2, “Prodrugs of [4 [4-(5-Aminomethyl-2-fluoro-phenyl)-piperidin-1-yl]-(1H-pyrrolo-pyridin-yl)-methanones and synthesis thereof” (Sanofi, priority 2009, dated 2014).
Where a name gives a salt, the structure may show the parent alone.

Tests used:
[1] = Rat plasma stability (incubation in rat plasma, LC-MS/MS); type: in vitro ADME; conditions: 100 ng/mL, 37° C.
Method: The rat plasma stability of Example 1 was tested by incubation of the compound in rat plasma at 100 ng/mL followed by LC-MS/MS bioanalysis to measure remaining parent compound relative to the time zero condition (no incubation). Concentrations of 1 remaining at 1 and 4 hr after incubation at 37° C. were 19% and 0%, indicating 1 was very unstable under these conditions. Since 1 was designed as a prodrug, plasma instability is a desirable attribute.

[2] = target: T1, beta-Tryptase (Homo sapiens, UniProt Q15661); assay: beta-Tryptase inhibition, chromogenic enzyme assay (S2366 substrate); type: biochemical; conditions: activity of parent drug against beta-Tryptase; Ki calculated from IC50
T1 construct: host or cells: yeast cells
T1 sequence (Q15661 31-275): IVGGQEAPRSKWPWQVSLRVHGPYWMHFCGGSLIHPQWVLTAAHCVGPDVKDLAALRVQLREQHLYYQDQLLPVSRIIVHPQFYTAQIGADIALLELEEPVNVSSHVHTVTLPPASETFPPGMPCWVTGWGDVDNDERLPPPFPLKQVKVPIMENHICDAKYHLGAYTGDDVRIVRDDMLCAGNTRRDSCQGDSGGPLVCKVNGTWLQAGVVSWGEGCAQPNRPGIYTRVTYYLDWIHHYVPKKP
From the text: Inhibition of this catalytic activity may be measured by the in vitro enzyme assay and the cellular assay.
Tryptase inhibition activity is confirmed using either isolated human lung tryptase or recombinant human beta tryptase expressed in yeast cells. Essentially equivalent results are obtained using isolated native enzyme or the expressed enzyme. The assay procedure employs a 96 well microplate (Costar 3590) using L-pyroglutamyl-L-prolyl-L-arginine-para-nitroanilide (S2366: Quadratech) as substrate (essentially as described by McEuen et. al. Biochem Pharm, 1996, 52, pages 331-340). Assays are performed at room temperature using 0.5 mM substrate (2×Km) and the microplate is read on a microplate reader (Beckman Biomek Plate reader) at 405 nm wavelength.
Materials and Methods for Tryptase Primary Screen (Chromogenic Assay)
S2366 (Stock solutions of 2.5 mM).
Purified recombinant beta Tryptase Stocks of 310 μg/mL. […]
The protocol is essentially the same as above except that the compound is added in duplicates at the following final concentrations: 0.01, 0.03, 0.1, 0.3, 1, 3, 10 μM (All dilutions carried out manually). […] From the IC50 value, the Ki can be calculated using the following formula: Ki=IC50/(1+[Substrate]/Km).

Structure (SMILES)	Rat plasma stability (in words) [1]	Concentration remaining relative to time zero ([1]; 1 hr incubation)	Concentration remaining relative to time zero ([1]; 4 hr incubation)	Ki [2]
COCCn1cc(C(=O)N2CCC(c3cc(CNC(=O)CNC(=O)[C@@H](N)C(C)C)ccc3F)CC2)c2c(C(=O)N3CCOCC3)cccc21.Cl [Example 1, (S)-2-Amino-N-[(4-fluoro-3-{1-[1-(2-methoxy-ethyl)-4-(morpholine-4-carbonyl)-1H-indole-3-carbonyl]-piperidin-4-yl}-benzylcarbamoyl)-methyl]-3-methyl-butyramide hydrochloride]	very unstable	19%	0%	–
COCCn1cc(C(=O)N2CCC(c3cc(CN)ccc3F)CC2)c2c(C(=O)N3CCOCC3)cccc21 [Parent of 1, [4-(5-Aminomethyl-2-fluoro-phenyl)-piperidin-1-yl]-[1-(2-methoxy-ethyl)-4-(morpholine-4-carbonyl)-1H-indol-3-yl]-methanone hydrochloride]	–	–	–	29 nM
COCCn1cc(C(=O)N2CCC(c3cc(CN)ccc3F)CC2)c2c(OC(F)(F)F)ccc(F)c21 [Parent of 4, [4-(5-aminomethyl-2-fluoro-phenyl)-piperidin-1-yl]-[7-fluoro-1-(2-methoxy-ethyl)-4-trifluoromethoxy-1H-indol-3-yl]-methanone hydrochloride]	–	–	–	38 nM
